In brackets after ≈: the same amount, converted by molar mass.
Assays:
[1] = tested on: Escherichia coli; experiment: Antimicrobial activity against Escherichia coli ATCC 25922 assessed as increase in absorbance incubated for 20 to 22 hrs; format: functional; settings: time 20-22 hrs
[2] = tested on: Escherichia coli; experiment: Antimicrobial activity against Escherichia coli K88 assessed as increase in absorbance incubated for 20 to 22 hrs; format: functional; settings: time 20-22 hrs
[3] = tested on: Escherichia coli; experiment: Antimicrobial activity against Escherichia coli K99 assessed as increase in absorbance incubated for 20 to 22 hrs; format: functional; settings: time 20-22 hrs
[4] = tested on: Salmonella typhimurium; experiment: Antimicrobial activity against Salmonella typhimurium 7731 assessed as increase in absorbance incubated for 20 to 22 hrs; format: functional, Salmonella enterica subsp. enterica serovar Typhimurium; settings: Salmonella enterica, time 20-22 hrs
[5] = tested on: Salmonella typhimurium; experiment: Antimicrobial activity against Salmonella typhimurium 14028 assessed as increase in absorbance incubated for 20 to 22 hrs; format: functional, Salmonella enterica subsp. enterica serovar Typhimurium; settings: Salmonella enterica, time 20-22 hrs
[6] = tested on: Pseudomonas aeruginosa; experiment: Antimicrobial activity against Pseudomonas aeruginosa 27853 assessed as increase in absorbance incubated for 20 to 22 hrs; format: functional; settings: time 20-22 hrs
[7] = tested on: Staphylococcus aureus; experiment: Antimicrobial activity against Staphylococcus aureus 29213 assessed as increase in absorbance incubated for 20 to 22 hrs; format: functional; settings: time 20-22 hrs
[8] = tested on: Enterococcus faecalis; experiment: Antimicrobial activity against Enterococcus faecalis 29212 assessed as increase in absorbance incubated for 20 to 22 hrs; format: functional; settings: time 20-22 hrs
[9] = tested on: Staphylococcus aureus; experiment: Antimicrobial activity against Staphylococcus aureus 25923 assessed as increase in absorbance incubated for 20 to 22 hrs; format: functional; settings: time 20-22 hrs
[10] = tested on: Staphylococcus aureus; experiment: Antimicrobial activity against methicillin-resistant Staphylococcus aureus 43300 assessed as increase in absorbance incubated for 20 to 22 hrs; format: functional; settings: time 20-22 hrs
[11] = tested on: Staphylococcus epidermidis; experiment: Antimicrobial activity against Staphylococcus epidermidis 12228 assessed as increase in absorbance incubated for 20 to 22 hrs; format: functional; settings: time 20-22 hrs
[12] = Hemolytic activity in healthy human RBC assessed as hemolysis incubated for 1 hr by microplate reader; format: toxicity, cell-based; settings: erythrocyte
[13] = Cytotoxicity against porcine IPEC-J2 cells assessed as cell death measured after 18 to 24 hrs by MTT assay; format: functional; settings: Sus scrofa, time 18-24 hrs
[14] = tested on: RAW264.7; experiment: Cytotoxicity against mouse RAW264.7 cells assessed as cell death measured after 18 to 24 hrs by MTT assay; format: functional; settings: time 18-24 hrs
[15] = tested on: HEK-293T; experiment: Cytotoxicity against human HEK293T cells assessed as cell death measured after 18 to 24 hrs by MTT assay; format: functional; settings: time 18-24 hrs

Compound | MIC [1] [µM] | MIC [2] [µM] | MIC [3] [µM] | MIC [4] [µM] | MIC [5] [µM] | MIC [6] [µM] | MIC [7] [µM] | MIC [8] [µM] | MIC [9] [µM] | MIC [10] [µM] | MIC [11] [µM] | HC10 [12] [µM] | IC10 [13] [µM] | IC10 [14] [µM] | IC10 [15] [µM]
CCCCCCCC(=O)NCCCC[C@H](N)C(=O)NCC(=O)NCC(=O)NCC(=O)N[C@H](CCCNC(=N)N)C(=O)N[C@@H](CCCNC(=N)N)C(=O)N[C@@H](CCCNC(=N)N)C(=O)N1CCC[C@H]1C(=O)N[C@@H](CS)C(=O)O | 32 (≈ 35.6 µg/mL) | 32 (≈ 35.6 µg/mL) | 32 (≈ 35.6 µg/mL) | 32 (≈ 35.6 µg/mL) | 64 (≈ 71.2 µg/mL) | 8 (≈ 8.9 µg/mL) | 128 (≈ 142 µg/mL) | 128 (≈ 142 µg/mL) | 128 (≈ 142 µg/mL) | 128 (≈ 142 µg/mL) | 128 (≈ 142 µg/mL) | 256 | 256 | 256 | 256
CCCCCCCC(=O)NCCCC[C@H](N)C(=O)NCC(=O)NCC(=O)NCC(=O)N[C@H](CCCNC(=N)N)C(=O)N[C@@H](CCCNC(=N)N)C(=O)N[C@@H](CCCNC(=N)N)C(=O)N1CCC[C@H]1C(=O)N[C@@H](CSSC[C@H](NC(=O)[C@@H]1CCCN1C(=O)[C@H](CCCNC(=N)N)NC(=O)[C@H](CCCNC(=N)N)NC(=O)[C@@H](CCCNC(=N)N)NC(=O)CNC(=O)CNC(=O)CNC(=O)[C@@H](N)CCCCNC(=O)CCCCCCC)C(=O)O)C(=O)O | 2 (≈ 4.45 µg/mL) | 4 (≈ 8.89 µg/mL) | 4 (≈ 8.89 µg/mL) | 4 (≈ 8.89 µg/mL) | 4 (≈ 8.89 µg/mL) | 4 (≈ 8.89 µg/mL) | 32 (≈ 71.1 µg/mL) | 64 (≈ 142 µg/mL) | 32 (≈ 71.1 µg/mL) | 32 (≈ 71.1 µg/mL) | 64 (≈ 142 µg/mL) | 256 | 256 | 256 | 256
CCCCCCCCCCCC(=O)NCCCC[C@H](NC(=O)[C@@H](N)CS)C(=O)NCC(=O)NCC(=O)NCC(=O)N[C@H](CCCNC(=N)N)C(=O)N[C@@H](CCCNC(=N)N)C(=O)N[C@@H](CCCNC(=N)N)C(=O)N1CCC[C@H]1C(=O)O | 32 (≈ 37.4 µg/mL) | 32 (≈ 37.4 µg/mL) | 64 (≈ 74.8 µg/mL) | 64 (≈ 74.8 µg/mL) | 128 (≈ 150 µg/mL) | 32 (≈ 37.4 µg/mL) | 64 (≈ 74.8 µg/mL) | 64 (≈ 74.8 µg/mL) | 128 (≈ 150 µg/mL) | 64 (≈ 74.8 µg/mL) | 64 (≈ 74.8 µg/mL) | 128 | 256 | 128 | 128
CCCCCCCC(=O)NCCCC[C@H](NC(=O)[C@@H](N)CS)C(=O)NCC(=O)NCC(=O)NCC(=O)N[C@H](CCCNC(=N)N)C(=O)N[C@@H](CCCNC(=N)N)C(=O)N[C@@H](CCCNC(=N)N)C(=O)N1CCC[C@H]1C(=O)O | 64 (≈ 71.2 µg/mL) | 64 (≈ 71.2 µg/mL) | 128 (≈ 142 µg/mL) | 128 (≈ 142 µg/mL) | 128 (≈ 142 µg/mL) | 64 (≈ 71.2 µg/mL) | 128 (≈ 142 µg/mL) | 128 (≈ 142 µg/mL) | 128 (≈ 142 µg/mL) | 128 (≈ 142 µg/mL) | 128 (≈ 142 µg/mL) | 256 | 256 | 256 | 256
CCCCCCCC(=O)NCCCC[C@H](NC(=O)[C@@H](N)CSSC[C@H](N)C(=O)N[C@@H](CCCCNC(=O)CCCCCCC)C(=O)NCC(=O)NCC(=O)NCC(=O)N[C@H](CCCNC(=N)N)C(=O)N[C@@H](CCCNC(=N)N)C(=O)N[C@@H](CCCNC(=N)N)C(=O)N1CCC[C@H]1C(=O)O)C(=O)NCC(=O)NCC(=O)NCC(=O)N[C@H](CCCNC(=N)N)C(=O)N[C@@H](CCCNC(=N)N)C(=O)N[C@@H](CCCNC(=N)N)C(=O)N1CCC[C@H]1C(=O)O | 8 (≈ 17.8 µg/mL) | 8 (≈ 17.8 µg/mL) | 8 (≈ 17.8 µg/mL) | 16 (≈ 35.6 µg/mL) | 16 (≈ 35.6 µg/mL) | 16 (≈ 35.6 µg/mL) | 128 (≈ 285 µg/mL) | 128 (≈ 285 µg/mL) | 128 (≈ 285 µg/mL) | 128 (≈ 285 µg/mL) | 128 (≈ 285 µg/mL) | 256 | 256 | 256 | 256
